Values joined by “and” are separate entries in the source; they are usually repeats but may differ in a detail not shown here. Equal values may be shown once. Marks after values point to notes of the source that are not given here.
Columns and labels:
[1] = test system: Plasmodium berghei, ANKA malaria strain; experiment: Antimalarial efficacy of a single oral dose (7.1 mg/kg) of trioxane combined with mefloquine hydrochloride (21 mg/kg) in Plasmodium berghei-infected mice (Table 2); format: in vivo
Method: (§1) Each trioxane dimer 12a-12c (0.90 mg) was dissolved in 0.11 mL of 7:3 Tween 80:ethanol and then diluted with 1.10 mL of distilled water for oral administration to 5-week-old C57BL/6J male mice (Jackson Laboratory) weighing about 21 g that were infected ip on day 0 with the Plasmodium berghei, ANKA malaria strain (2×10^7 parasitized erythrocytes) [Chen et al., 2006]. Each of five mice in a group was treated orally 24 h post-infection with a single dose of 0.20 mL (0.20 mL/1.21 mL×0.9 mg=0.15 mg) of diluted compound solution, corresponding to a dose of 7.1 mg/kg, combined with 21 mg/kg of mefloquine hydrochloride. Both determining blood parasitemia levels, as well as monitoring the duration of animal survival compared with survival time of infected animals receiving no drug, are widely accepted measures of drug efficacy in antimalarial drug development. […] The average survival time of the animals receiving no drug was 15.8 days post-infection. […] Widely accepted indications of complete cure (i.e. 100% efficacy) are survival of animals to day 30 post-infection with no detectable malaria parasites in the animal's blood at that time.

[2] = test system: Plasmodium berghei, ANKA strain; experiment: Antimalarial efficacy of a single oral dose of trioxane combined with mefloquine hydrochloride in Plasmodium berghei-infected mice (Table 1); format: in vivo
Method: Each trioxane 2b, 3, 4a, and 4b (0.90 mg) was dissolved in 0.11 mL of 7:3 Tween 80:ethanol and then diluted with 1.10 mL of water for oral administration to 5-week old C57BL/6J male mice (from the Jackson Laboratory) weighing about 22 g that were infected intraperitoneally on day 0 with the Plasmodium berghei, ANKA strain (2×10^7 parasitized erythrocytes). Chen et al., 2006.
Each of five mice in a group was treated orally 24 h post-infection with a single dose of 0.20 mL (0.20 mL/1.21 mL×0.9 mg=0.15 mg) of diluted compound solution, corresponding to a dose of 6.8 mg/kg, combined with 20 mg/kg of mefloquine hydrochloride. Determining blood parasitemia levels, as well as monitoring the duration of animal survival compared to survival time of animals receiving no drug, are both widely accepted as measures of a drug's efficacy in antimalarial drug development. […] Animals receiving no drug died on days 6-7 post-infection. A widely accepted yardstick of cure (i.e., 100% efficacy) is survival of animals to day 30 post-infection, with no detectable malaria parasites in the animal's blood at that time.
Average survival results are summarized in Table 1, including single oral doses of 13 mg/kg of trioxane combined with 13 mg/kg of mefloquine hydrochloride. The clinically used monomeric water-soluble trioxane drug 2c and the synthetic trioxolane peroxide drug development candidate OZ277 (9) maleate are included as monotherapy reference compounds.

[3] = Overt toxicity, behavioral change and body weight in treated malaria-infected mice (dimer ester study); format: in vivo; conditions: 7.1 mg/kg trioxane + 21 mg/kg mefloquine hydrochloride, mice surviving 30 days
Method: as §1

Plasmodium berghei = conditions: monotherapy, single oral dose 30 mg/kg; data from Vennerstrom et al.; cited from earlier work
[4] = single oral dose 13 mg/kg trioxane + 13 mg/kg mefloquine hydrochloride

Row | Structure (SMILES) | survival after infection (all mice) ([1]; 7.1 mg/kg trioxane + 21 mg/kg mefloquine hydrochloride) [days] | No. of mice parasite free (day 30) ([1]; single oral dose 7.1 mg/kg trioxane + 21 mg/kg mefloquine hydrochloride, five mice) | % parasitemia on day 30% ([1]; single oral dose 7.1 mg/kg trioxane + 21 mg/kg mefloquine hydrochloride, number of parasitemic mice in brackets) | % Suppression of Parasitemia (on day 3 post-infection) ([2]; single oral dose 6.8 mg/kg trioxane + 20 mg/kg mefloquine hydrochloride) [%] | Average Survival (days) After Infection ([2]; single oral dose 6.8 mg/kg trioxane + 20 mg/kg mefloquine hydrochloride, 24 h post-infection, C57BL/6J mice) | % Suppression of Parasitemia (on day 3 post-infection) [2, 4] [%] | Average Survival (days) After Infection [2, 4] | weight gain [3] | % Suppression of Parasitemia (on day 3 post-infection) (Plasmodium berghei)
1 | CO[C@H]1O[C@@H]2O[C@@]3(C)CC[C@H]4[C@H](C)CC[C@@H]([C@H]1C)[C@@]24OO3 [2b, artemether, reference compound] | 30 | 4 | 1.6 (1 mouse) % | 99.8 | 19.8 days and 19.8 (16, 17, days | 99.7 | 19.6 (16, 17, days | 10-20% | –
2 | CC(C)(N)CNC(=O)C[C@H]1CC[C@]2(CC1)OO[C@]1(O2)C2CC3CC(C2)CC1C3 [compound 9] | – | – | – | – | – | – | – | – | 99.95^b %
